# According to patent US12472210B2 (priority 2019, dated 2025):
# “And” between values parts separate entries of the source, which are not always exact repeats. Identical values can stand only once. Like-named read-outs stand apart in the source and are kept apart here.
# Assays:
# [1] = tested on: subcutaneously transplanted human liver cancer LM3 tumor; set-up: species or system BALB/c nude mice; settings: mouse, in vivo
# [2] = mouse, in vivo, ip
# [3] = tested on: subcutaneously transplanted human liver cancer LM3 tumor; set-up: species or system BALB/c nude mice; settings: mouse, in vivo, ip
# [4] = mouse, in vivo
smiles,measurement,setting,value
O=P1(N(CCCl)CCCl)NCCCO1 (centres unmarked) [cyclophosphamide],Tumor inhibition rate (%),[1],79.33% and 79.33 ± 0.10%
same,Tumor weight,[1],0.21 ± 0.10 g
same,Spleen index,[2]; 10 mg/kg,1.08 ± 0.12 mg/g
same,Spleen quality,[2]; 10 mg/kg,0.19 ± 0.01 g
same,body weight at the end of the experiment,[2]; 10 mg/kg,18.58 ± 0.41 g
same,Spleen index,[2]; 20 mg/kg,1.01 ± 0.08 mg/g
same,Spleen quality,[2]; 20 mg/kg,0.17 ± 0.01 g
same,body weight at the end of the experiment,[2]; 20 mg/kg,17.54 ± 0.28 g
same,Tumor inhibition rate (%),[3]; 10 mg/kg,33.21% and 33.21 ± 1.41%
same,Tumor weight,[3]; 10 mg/kg,0.50 ± 0.02 g
same,Tumor inhibition rate (%),[3]; 20 mg/kg,62.67% and 62.67 ± 5.81%
same,Tumor weight,[3]; 20 mg/kg,0.28 ± 0.06 g
same,Spleen quality,[4],0.12 ± 0.02 g
same,body weight at the end of the experiment,[4],18.91 ± 0.46 g
